According to US8940310B2, “Methods of treatment using TLR7 and/or TLR9 inhibitors” (Dynavax Technologies Corporation, priority 2010, dated 2015):
[I] = hypoxanthine (inosine)

What was measured:
[1] = Monomer and tetramer formation of IRPs, size-exclusion HPLC; type: physicochemical; conditions: 100 mg/mL in PBS and 0.5M KCl, room temperature
Procedure: Solutions were prepared of the by mixing 100 mg/mL of the IRP sequences in PBS and 0.5M KCl and storing at room temperature for three to five weeks. The solutions were subsequently analyzed by size-exclusion HPLC.

[2] = High dosages of IRPs in rats (weight, deaths, histology); type: in vivo, Sprague Dawley rats; conditions: rat; for Heart: Cell Vacuolation, number of animals / Heart: Hemorrhage, number of animals / Heart: Mononuclear Cell Infiltration, number of animals / Heart: Necrosis, number of animals / Heart: No significant changes, number of animals / Liver: Liver changes, number of animals / Liver: Mixed cell infiltration, number of animals / Liver: Necrosis, number of animals / Liver: No significant changes, number of animals / Liver: Vacuolation, number of animals / Right Kidney: Hydronephrosis, number of animals / Right Kidney: Mineralization, number of animals / Right Kidney: Necrosis, number of animals / Right Kidney: No significant changes, number of animals / Right Kidney: Tubular basophilia, number of animals / Right Kidney: Tubular changes, number of animals: 6 animals
Procedure: To test the activity of IRPs at high dosages in rats, IRPs (SEQ ID NO:42 and SEQ ID NO:109) or a control (PBS) were subcutaneously administered to 8-9 weeks old, […], 3, 6, and 9 (n=6 per group). Rats were weighed prior to administration and on days 1, 3, 4, 6, 7, and 9. Organs were harvested at the end of the study, and organ weights and tissues levels of the oligonucleotides were determined. In addition, histolocial evaluation of the liver, kidney, and heart was performed.
Rats were weighed prior to administration and on days 1, 3, 6, 7, and 9. Organs were harvested at the end of the study, and organ weights and tissues levels of the oligonucleotides were determined. In addition, histological evaluation of the liver, kidney, and heart was performed.

[3] = High dosages of IRPs in mice (weight, histology); type: in vivo, BALB/c mice; conditions: 100 mg/kg SC days 1, 4, 7, 10
Procedure: To test the activity of IRPs at high dosages in mice, IRPs or a control (saline) were subcutaneously administered to BALB/c mice at a dosage of 4 mg/kg, 20 mg/kg, 50 mg/kg, or 100 mg/kg on days 1, 4, 7, and 10 (n=5 per group). Mice were weighed prior to administration and on days 2, 4, 7, 9, and 11. Serum cytokines were assayed at two hours post the first and third injections and 24 hours post the fourth injection. Organs were harvested at the end of the study, and organ weights and tissues levels of the oligonucleotides were determined. In addition, histological evaluation of the liver, kidney, and heart was performed.
Mice were weighed prior to administration and on days 1, 3, 4, 6, 7, and 9. Organs were harvested at the end of the study, and organ weights and tissues levels of the oligonucleotides were determined. In addition, histological evaluation of the liver, kidney, and heart was performed.

human B-cells = assay: Human B-cells cultured in the presence of IRPs, IL-6
[4] = 10 mg/kg, 0 = no change to 4 = severe
[5] = 90 mg/kg, 0 = no change to 4 = severe

## 5′-UGC TGC TCC TTG AGI GGT TGT TTG T-3′ (DNA UGCTGCTCCTTGAGNGGTTGTTTGT; DNA, [I] at 15, backbone and methylation of C not given here) [SEQ ID NO:109]
[1]; five weeks
  fraction in monomer form: 100%
[1]; three weeks
  fraction in monomer form: 100%
[2]; 10 mg/kg
  Kidney: tubular basophilia: occurred
  Heart: Cell Vacuolation, number of animals: 0
  Heart: Hemorrhage, number of animals: 0
  Heart: Mononuclear Cell Infiltration, number of animals: 0
  Heart: Necrosis, number of animals: 0
  Heart: No significant changes, number of animals: 6
  Liver: Liver changes, number of animals: 6
  Liver: Mixed cell infiltration, number of animals: 6
  Liver: Necrosis, number of animals: 0
  Liver: No significant changes, number of animals: 0
  Liver: Vacuolation, number of animals: 0
  Right Kidney: Hydronephrosis, number of animals: 0
  Right Kidney: Mineralization, number of animals: 0
  Right Kidney: Necrosis, number of animals: 0
  Right Kidney: No significant changes, number of animals: 0
  Right Kidney: Tubular basophilia, number of animals: 6
  Right Kidney: Tubular changes, number of animals: 6
[2]; 10 mg/kg or 100 mg/kg SC days 0, 3, 6, 9
  organ weight of the liver, heart, kidney, or spleen: no significant difference
[2]; [4]
  Liver: Liver changes, mean severity score: 1.0
  Liver: Mixed cell infiltration, mean severity score: 2.5
  Right Kidney: Tubular basophilia, mean severity score: 1.5
  Right Kidney: Tubular changes, mean severity score: 1.0
[2]; 90 mg/kg
  Heart: cellular vacuolation: present in some animals
  Heart: hemorrhage and necrosis: noted
  Kidney: tubular basophilia: occurred
  Liver: hepatocellular cytoplasmic vacuolation: hepatocellular cytoplasmic vacuolation
  Liver: hepatocellular necrosis: hepatocellular necrosis
  Renal necrosis: noted
  Heart: Cell Vacuolation, number of animals: 5
  Heart: Hemorrhage, number of animals: 1
  Heart: Mononuclear Cell Infiltration, number of animals: 0
  Heart: Necrosis, number of animals: 1
  Heart: No significant changes, number of animals: 0
  Liver: Liver changes, number of animals: 6
  Liver: Mixed cell infiltration, number of animals: 6
  Liver: Necrosis, number of animals: 6
  Liver: No significant changes, number of animals: 0
  Liver: Vacuolation, number of animals: 6
  Right Kidney: Hydronephrosis, number of animals: 0
  Right Kidney: Mineralization, number of animals: 1
  Right Kidney: Necrosis, number of animals: 1
  Right Kidney: No significant changes, number of animals: 0
  Right Kidney: Tubular basophilia, number of animals: 5
  Right Kidney: Tubular changes, number of animals: 5
[2]; 90 mg/kg SC, n=6
  deaths two days after the first dose: one rat died
[2]; [5]
  Heart: Cell Vacuolation, mean severity score: 1.8
  Heart: Hemorrhage, mean severity score: 3.0
  Heart: Necrosis, mean severity score: 1.0
  Liver: Liver changes, mean severity score: 3.5
  Liver: Mixed cell infiltration, mean severity score: 2.0
  Liver: Necrosis, mean severity score: 2.0
  Liver: Vacuolation, mean severity score: 2.0
  Right Kidney: Mineralization, mean severity score: 1.0
  Right Kidney: Necrosis, mean severity score: 4.0
  Right Kidney: Tubular basophilia, mean severity score: 3.0
  Right Kidney: Tubular changes, mean severity score: 2.0
[2]; 100 mg/kg
  total weight and % weight gain/loss: decrease in total weight and % weight gain/loss
[3]
  weight loss as % gain versus pre-dose: provoked weight loss
Human B-cells; Experiment # 1, Max Conc 4.0 uM
  Normalized IL-6 Response (Percentage of Positive Control): 58%
Human B-cells; Experiment # 2, Max Conc 4.0 uM
  Normalized IL-6 Response (Percentage of Positive Control): 52%
Human B-cells; Experiment # 3, Max Conc 4.0 uM
  Normalized IL-6 Response (Percentage of Positive Control): 39%
Human B-cells; Experiment # 4, Max Conc 4.0 uM
  Normalized IL-6 Response (Percentage of Positive Control): 45%
Human B-cells; Experiment # 5, Max Conc 4.0 uM
  Normalized IL-6 Response (Percentage of Positive Control): 53%
Human B-cells; Experiment # 6, Max Conc 4.0 uM
  Normalized IL-6 Response (Percentage of Positive Control): 58%
Human B-cells; Experiment # 7, Max Conc 4.0 uM
  Normalized IL-6 Response (Percentage of Positive Control): 45%
Human B-cells; Experiment # 8, Max Conc 2.0 uM
  Normalized IL-6 Response (Percentage of Positive Control): 42%
Human B-cells; Experiment # 9, Max Conc 2.0 uM
  Normalized IL-6 Response (Percentage of Positive Control): 64%
Human B-cells; Experiment # 10, Max Conc 2.0 uM
  Normalized IL-6 Response (Percentage of Positive Control): 63%
Human B-cells; Experiment # 11, Max Conc 2.0 uM
  Normalized IL-6 Response (Percentage of Positive Control): 54%
Human B-cells; human B-cells with IRP alone, 48 hours, FIGS. 1A-B
  B-cell response as evidenced by IL-6 produced: induced a B-cell response
